Assay results as given in US20160009686A1, “VEGFR3 INHIBITORS” (CANCER THERAPEUTICS CRC PTY LIMITED, priority 2012, published 2016).

Tests used:
[1] = molecular target: T1, FAK (Homo sapiens, UniProt Q05397); test: P397Y-FAK Inhibition MSD Platform Cellular Biomarker Assay; assay type: cell-based; conditions: MDA-231-LNA cells, treated for 1 hour; pFAK-397 levels
T1 construct: endogenous in cells; host or cells: MDA-231-LNA
Description: 96-well plates (cat#MA6000, Meso Scale Discovery) are coated with 30 μL/well of mouse monoclonal FAK antibody [63D5] (cat#ab72140, Abcam) pre-diluted in PBS to a concentration of 1 mg/mL. The plates are sealed with adhesive film and incubated for 16 hours at 4° C. The antibody is then flicked out of the plates and 150 μL of 3% [w/v] Blocker A (cat#R93AA-1, Meso Scale Discovery) is added. The plates are resealed with adhesive film and incubated at room temperature on a shaker set at medium speed for 2 hours. The plates are then washed three times with a solution containing 50 mM Tris-HCl pH 7.5, 0.15 M NaCl and 0.02% Tween-20, before cell lysate addition described below.
On the day prior to compound treatment, 200 μL media containing 20,000 cells is seeded into all wells of white, clear-bottom, TC treated, pclear, 96-well microtitre plates (cat#655098, Greiner Bio-One), and the plates are incubated at 37° C. and 5% CO2 for 36 hours. 1 μL/well of compound is then added from dilution series prepared in DMSO. Negative control wells receive the same volume of DMSO without compounds, and positive control wells receive 2 μM of a control compound in the same volume of DMSO. Cells are treated for 1 hour at 37° C. and 5% CO2. The media/compounds are then flicked off and 55 μL/well of ice-cold complete lysis buffer is added. […] Plates are incubated on ice for 30 minutes, with 30 seconds high speed plate shaking every 5 minutes. 40 μL/well of cell lysate is transferred to the coated, blocked and washed 96-well microtitre plates described above. The 96-well plates are sealed with adhesive film and incubated for 16 hours at 4° C. The plates are then washed three times with a solution containing 50 mM Tris-HCl pH 7.5, 0.15 M NaCl and 0.02% Tween-20 and tapped dry. […] Plates are then washed three times with a solution containing 50 mM Tris-HCl pH 7.5, 0.15 M NaCl and 0.02% Tween-20 and tapped dry. 150 μL/well of Read Buffer T+Surfactant (cat#R92TC-1, Meso Scale Discovery) is then added, and pFAK-397 levels quantified using a Meso Scale Discovery SECTOR Imager 6000 instrument.

[2] = molecular target: T2, VEGFR2 (Homo sapiens, UniProt P35968); test: VEGFR2 Phospho ELISA Assay; assay type: cell-based; conditions: HUVEC, treated for 1 hour, VEGF stimulated; phospho VEGFR2 relative to Total VEGFR2
T2 construct: host or cells: HUVEC
T2 sequence (P35968 20-1356): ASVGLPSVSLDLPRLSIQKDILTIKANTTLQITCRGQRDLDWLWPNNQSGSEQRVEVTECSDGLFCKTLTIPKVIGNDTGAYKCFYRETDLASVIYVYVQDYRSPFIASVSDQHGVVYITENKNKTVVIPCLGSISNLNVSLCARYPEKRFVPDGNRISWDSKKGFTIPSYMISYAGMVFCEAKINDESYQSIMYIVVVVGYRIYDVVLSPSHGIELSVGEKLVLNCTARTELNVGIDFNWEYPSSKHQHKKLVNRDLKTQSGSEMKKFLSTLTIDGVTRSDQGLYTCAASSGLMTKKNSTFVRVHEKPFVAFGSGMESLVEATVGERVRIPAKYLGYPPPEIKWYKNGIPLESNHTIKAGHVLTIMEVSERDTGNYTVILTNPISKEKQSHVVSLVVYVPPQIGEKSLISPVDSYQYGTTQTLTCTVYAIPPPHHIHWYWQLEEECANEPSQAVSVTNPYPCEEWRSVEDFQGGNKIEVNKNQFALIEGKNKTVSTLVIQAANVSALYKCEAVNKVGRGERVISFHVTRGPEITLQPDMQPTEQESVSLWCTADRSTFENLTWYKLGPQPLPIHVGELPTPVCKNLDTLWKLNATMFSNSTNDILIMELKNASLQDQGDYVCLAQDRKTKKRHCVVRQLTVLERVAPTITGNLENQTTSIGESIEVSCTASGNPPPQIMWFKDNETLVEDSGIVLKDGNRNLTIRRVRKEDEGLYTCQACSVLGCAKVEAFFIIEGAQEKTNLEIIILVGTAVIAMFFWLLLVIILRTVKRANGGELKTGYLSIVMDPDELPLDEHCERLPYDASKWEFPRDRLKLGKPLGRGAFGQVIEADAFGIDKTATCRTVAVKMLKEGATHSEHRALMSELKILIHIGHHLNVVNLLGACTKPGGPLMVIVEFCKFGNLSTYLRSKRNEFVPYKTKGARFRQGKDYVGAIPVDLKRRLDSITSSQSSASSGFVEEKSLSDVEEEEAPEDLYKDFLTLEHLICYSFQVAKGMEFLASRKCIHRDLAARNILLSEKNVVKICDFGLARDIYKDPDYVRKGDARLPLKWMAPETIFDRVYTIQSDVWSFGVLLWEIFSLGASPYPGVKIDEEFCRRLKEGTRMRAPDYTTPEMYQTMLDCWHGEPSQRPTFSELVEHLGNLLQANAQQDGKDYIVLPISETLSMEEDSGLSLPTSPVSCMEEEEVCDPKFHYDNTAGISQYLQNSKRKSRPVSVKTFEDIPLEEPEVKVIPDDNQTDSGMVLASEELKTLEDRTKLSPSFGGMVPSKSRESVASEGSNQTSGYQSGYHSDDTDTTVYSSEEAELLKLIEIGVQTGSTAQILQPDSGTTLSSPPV
Description: Adult human umbilical vein endothelial cells (HUVEC) (Cat# CC-2519, Lonza) were seeded into clear-bottom, TC treated 12 well plates (Cat #665180, Greiner Bio-One) in EGM-2 (Cat# CC-3162, Lonza) at 180,000 cells/well (volume 1 mL), and the plates incubated at 37° C. and 5% CO2 for 6 hours.
96 well Maxisorp immuno plates (Cat #439454, Nunc) were coated with 100 μL of Total VEGFR2 capture antibody (Part #841434, Human Total VEGFR2/FLT4 ELISA Kit, Cat # DYC1780, R&D Systems), or Phospho VEGFR2 Capture antibody (Part #841419, Human Phospho VEGFR2/FLT4 ELISA Kit, Cat# DYC1766, R&D Systems). The plates were covered and incubated at room temperature overnight.
The coating antibody was flicked out and the plates washed three times with Wash Buffer (Phosphate buffered saline (137 mM NaCl, 2.7 nM KCl, 8.1 nM Na2HPO4, 1.5 mL KH2PO4, pH 7.2-7.4), 0.05% Tween 20). 300 μL of Blocking buffer (1% v/v BSA (Cat# A8412, Sigma) in PBS) was then added to wells and plate incubated for 2 hours at room temperature. Blocking solution is flicked out and plates washed three times and tapped dry.
Compound dilution series were prepared in EBM-2 (Cat # CC-3156, Lonza)+0.1% BSA (Cat# A8412, Sigma) with constant 0.1% DMSO concentration. 427.5 μL of sample or vehicle control was added to the cell monolayers. Cells are treated for 1 hour at 37° C. and 5% CO2. 50 ng/mL Recombinant human VEGF (Cat #293-VC, R & D Systems) added to wells and plates incubated for an additional 10 minutes at 37° C. and 5% CO2.
(§1) The media and compounds were removed and the cell monolayer washed once in Dulbecco's Phosphate Buffered Saline (Cat #21600-044, Invitrogen). 130 μL of Lysis buffer added to wells and cell lysate harvested and transferred to tubes and stored on ice. Complete lysis buffer was prepared by adding 10 μL Protease Inhibitor Cocktail (Cat # P8340, Sigma-Aldrich), 10 μL PMSF (Phenylmethanesulfonyl fluoride, Cat # P7626, Sigma-Aldrich, prepared as 500 mM DMSO stock) per 1 mL of Phosphosafe™ Extraction Reagent (Cat #71296, Merck).
The plates were then washed three times in wash buffer as described above and tapped dry.
For detection of Total VEGFR2 100 μL of Detection antibody (Total VEGFR2 Detection Antibody Part#841435 in Total VEGFR2 kit) diluted in IC Diluent #14 (20 mM Tris, 137 mM CaCl2, 0.05% Tween20, 0.1% BSA) was added to wells and the plate incubated for 2 hours at room temperature. The plate was then washed three times in wash buffer and tapped dry. 100 μL of streptavidin-HPR diluted in IC diluent #14 Streptavidin-HRP, Part #890803 in Total VEGFR2 kit) was added to wells and incubated at room temperature for 20 minutes followed by washing as described above. 100 μL Substrate solution (3,3′,5,5′-Tetramethylbenzidine (TMB) Liquid Substrate System for ELISA, Cat # T0440, Sigma-Aldrich) was added and the plate incubated for 20 minutes in the dark at room temperature followed by the addition of 50 μL stop solution (2 M H2SO4).
Total VEGFR2 levels were quantified using a Multiskan Ascent plate reader and Ascent software fitted with 450 nm filter.
For detection of Phospho VEGFR2, 100 μL of Detection antibody (Anti-Phospho-Tyrosine-HRP Detection Antibody, Part #841403 in Phospho VEGFR2 kit) was diluted in IC Diluent 14 (20 mM Tris, 137 mM CaCl2, 0.05% Tween20, 0.1% BSA), was added to the wells and the plate incubated for 2 hours at room temperature. The plate was then washed three times in wash buffer as described above and tapped dry. 100 μL Substrate solution (3,3′,5,5′-Tetramethylbenzidine (TMB) Liquid Substrate System for ELISA, Cat # T0440, Sigma-Aldrich) was added and the plate incubated for 20 minutes in the dark at room temperature followed by the addition of 50 μL stop solution (2 M H2SO4).
Phospho VEGFR2 levels were quantified using a Multiscan ascent plate reader and ascent software fitted with 450 nm filter.
IC50 values are determined by first calculating the level of phospho VEGFR2 relative to Total VEGFR2 according to the following formula:

[3] = molecular target: VEGFR3 cytoplasmic domain (Homo sapiens, UniProt P35916); test: VEGFR3 Biochemical Assay (AlphaScreen); conditions: GST-fusion enzyme, 500 μM ATP, 90 minutes at 30 degree Celsius (modified form in some cases: Hexa-His-fusion enzyme, 1 μM ATP); read-out: IC50
VEGFR3 cytoplasmic domain, sequence (P35916 798-1298 isoform P35916-1): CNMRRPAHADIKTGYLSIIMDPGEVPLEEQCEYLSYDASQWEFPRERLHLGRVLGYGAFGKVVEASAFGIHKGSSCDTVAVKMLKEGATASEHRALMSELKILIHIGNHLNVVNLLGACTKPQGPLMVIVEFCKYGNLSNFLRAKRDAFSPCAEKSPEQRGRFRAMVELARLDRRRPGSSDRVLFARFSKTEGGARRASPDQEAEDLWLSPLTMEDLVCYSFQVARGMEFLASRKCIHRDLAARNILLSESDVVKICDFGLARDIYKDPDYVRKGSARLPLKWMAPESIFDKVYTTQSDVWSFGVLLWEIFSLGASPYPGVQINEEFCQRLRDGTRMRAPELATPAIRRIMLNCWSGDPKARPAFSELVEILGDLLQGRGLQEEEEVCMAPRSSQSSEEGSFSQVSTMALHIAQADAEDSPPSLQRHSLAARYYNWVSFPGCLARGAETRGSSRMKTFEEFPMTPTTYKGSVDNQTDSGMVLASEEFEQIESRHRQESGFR

[4] = molecular target: VEGFR3 (Homo sapiens, UniProt P35916); test: VEGFR3 Phospho ELISA Assay; assay type: cell-based; conditions: HMVEC-dLyAD cells, treated for 1 hour, VEGFC stimulated; phospho VEGFR3 relative to Total VEGFR3
VEGFR3, sequence (P35916 25-1363): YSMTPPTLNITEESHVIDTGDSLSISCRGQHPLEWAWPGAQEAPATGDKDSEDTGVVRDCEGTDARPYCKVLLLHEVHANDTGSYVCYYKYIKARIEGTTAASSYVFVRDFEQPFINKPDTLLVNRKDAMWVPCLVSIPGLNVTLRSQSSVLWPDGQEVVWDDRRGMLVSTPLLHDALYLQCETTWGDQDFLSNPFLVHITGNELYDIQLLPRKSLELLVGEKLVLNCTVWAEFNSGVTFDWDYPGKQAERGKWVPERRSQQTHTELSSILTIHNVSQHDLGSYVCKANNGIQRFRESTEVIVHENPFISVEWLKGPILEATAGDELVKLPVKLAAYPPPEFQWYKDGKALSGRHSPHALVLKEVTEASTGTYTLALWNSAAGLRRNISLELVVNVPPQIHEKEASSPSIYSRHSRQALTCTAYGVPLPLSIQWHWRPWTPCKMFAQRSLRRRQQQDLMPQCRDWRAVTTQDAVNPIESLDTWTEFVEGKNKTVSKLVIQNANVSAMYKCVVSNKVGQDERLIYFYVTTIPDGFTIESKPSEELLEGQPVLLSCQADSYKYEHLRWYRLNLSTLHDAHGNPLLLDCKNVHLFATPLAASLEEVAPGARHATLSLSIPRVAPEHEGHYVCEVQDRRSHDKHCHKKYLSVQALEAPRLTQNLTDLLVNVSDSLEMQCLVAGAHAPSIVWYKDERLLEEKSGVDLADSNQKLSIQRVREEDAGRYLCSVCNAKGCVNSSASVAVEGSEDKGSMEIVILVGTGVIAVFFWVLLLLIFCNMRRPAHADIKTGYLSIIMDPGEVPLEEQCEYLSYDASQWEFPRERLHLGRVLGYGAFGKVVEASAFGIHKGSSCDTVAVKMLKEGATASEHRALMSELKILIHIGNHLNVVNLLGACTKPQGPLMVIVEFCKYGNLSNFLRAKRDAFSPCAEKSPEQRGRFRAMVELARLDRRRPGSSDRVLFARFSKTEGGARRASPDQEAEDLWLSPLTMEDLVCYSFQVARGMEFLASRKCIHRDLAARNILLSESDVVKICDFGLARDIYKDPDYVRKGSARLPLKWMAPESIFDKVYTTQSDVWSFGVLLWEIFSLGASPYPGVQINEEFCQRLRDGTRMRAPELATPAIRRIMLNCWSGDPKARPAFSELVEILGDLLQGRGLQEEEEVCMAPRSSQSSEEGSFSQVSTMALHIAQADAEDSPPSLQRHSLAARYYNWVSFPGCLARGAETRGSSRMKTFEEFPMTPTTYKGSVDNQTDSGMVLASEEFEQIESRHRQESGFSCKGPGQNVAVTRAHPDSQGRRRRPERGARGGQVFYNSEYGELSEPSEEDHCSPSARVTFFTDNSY
Description: Adult human dermal lymphatic microvascular endothelial cells (HMVEC-dLyAD) (Cat# CC-2810, Lonza) were seeded into clear-bottom, TC treated 12 well plates (Cat #665180, Greiner Bio-One) in EGM-2MV (Cat# CC-3202, Lonza) at 180,000 cells/well (volume 1 mL), and the plates incubated at 37° C. and 5% CO2 for 6 hours.
96 well Maxisorp immuno plates (Cat #439454, Nunc) were coated with 100 μL of Total VEGFR3 capture antibody (Part #841888, Human Total VEGFR3/FLT4 ELISA Kit, Cat # DYC3491, R&D Systems), or Phospho VEGFR3 Capture antibody (Part #841885, Human Phospho VEGFR3/FLT4 ELISA Kit, Cat# DYC2724, R&D Systems). The plates were covered and incubated at room temperature overnight.
The coating antibody was flicked out and the plates washed three times with Wash Buffer (Phosphate buffered saline (137 mM NaCl, 2.7 nM KCl, 8.1 nM Na2HPO4, 1.5 mL KH2PO4, pH 7.2-7.4), 0.05% Tween 20). 300 μL of blocking buffer (5% v/v Tween 20, 5% w/v sucrose in PBS) was then added to wells and plate incubated for 2 hours at room temperature. Blocking solution is flicked out and plates washed three times and tapped dry.
Compound dilution series were prepared in EBM-2 (Cat # CC-3156, Lonza)+0.1% BSA (Cat# A8412, Sigma) with constant 0.1% DMSO concentration. 439 μL of sample or vehicle control was added to the cell monolayers. Cells are treated for 1 hour at 37° C. and 5% CO2. 250 ng/mL Recombinant human VEGFC (Cat #2179-VC, R & D Systems) added to wells and plates incubated for an additional 10 minutes at 37° C. and 5% CO2.
as §1
The harvested samples were then diluted 1:2 in IC Diluent #18 (5% Tween 20/PBS) and 100 μL transferred to the Total and Phospho VEGFR3 coated, blocked and washed 96 well plates and incubated for 2 hours at room temperature. The plates were then washed three times in wash buffer as described above and tapped dry. For detection of Total VEGFR3 100 μL of Detection antibody (Total VEGFR3 Detection Antibody Part#841888 in Total VEGFR3 kit) diluted in IC Diluent #1 (1% w/v BSA (Cat # A7906, Sigma-Aldrich)/PBS) was added to wells and the plate incubated for 2 hours at room temperature. The plate was then washed three times in wash buffer and tapped dry. 100 μL of streptavidin-HPR diluted in IC diluent #1 Streptavidin-HRP, Part #890803 in Total VEGFR3 kit) was added to wells and incubated at room temperature for 20 minutes followed by washing as described above. 100 μL Substrate solution (3,3′,5,5′-Tetramethylbenzidine (TMB) Liquid Substrate System for ELISA, Cat # T0440, Sigma-Aldrich) was added and the plate incubated for 20 minutes in the dark at room temperature followed by the addition of 50 μL stop solution (2 M H2SO4).
Total VEGFR3 levels were quantified using a Multiskan Ascent plate reader and Ascent software fitted with 450 nm filter.
For detection of Phospho VEGFR3, 100 μL of Detection antibody (Anti-Phospho-Tyrosine-HRP Detection Antibody, Part #841403 in Phospho VEGFR3 kit) was diluted in IC Diluent #1 (1% w/v BSA/PBS), added to the wells and the plate incubated for 2 hours at room temperature. The plate was then washed three times in wash buffer as described above and tapped dry. 100 μL Substrate solution (3,3′,5,5′-Tetramethylbenzidine (TMB) Liquid Substrate System for ELISA, Cat # T0440, Sigma-Aldrich) was added and the plate incubated for 20 minutes in the dark at room temperature followed by the addition of 50 μL stop solution (2 M H2SO4).

T1 sequence (Q05397 whole entry): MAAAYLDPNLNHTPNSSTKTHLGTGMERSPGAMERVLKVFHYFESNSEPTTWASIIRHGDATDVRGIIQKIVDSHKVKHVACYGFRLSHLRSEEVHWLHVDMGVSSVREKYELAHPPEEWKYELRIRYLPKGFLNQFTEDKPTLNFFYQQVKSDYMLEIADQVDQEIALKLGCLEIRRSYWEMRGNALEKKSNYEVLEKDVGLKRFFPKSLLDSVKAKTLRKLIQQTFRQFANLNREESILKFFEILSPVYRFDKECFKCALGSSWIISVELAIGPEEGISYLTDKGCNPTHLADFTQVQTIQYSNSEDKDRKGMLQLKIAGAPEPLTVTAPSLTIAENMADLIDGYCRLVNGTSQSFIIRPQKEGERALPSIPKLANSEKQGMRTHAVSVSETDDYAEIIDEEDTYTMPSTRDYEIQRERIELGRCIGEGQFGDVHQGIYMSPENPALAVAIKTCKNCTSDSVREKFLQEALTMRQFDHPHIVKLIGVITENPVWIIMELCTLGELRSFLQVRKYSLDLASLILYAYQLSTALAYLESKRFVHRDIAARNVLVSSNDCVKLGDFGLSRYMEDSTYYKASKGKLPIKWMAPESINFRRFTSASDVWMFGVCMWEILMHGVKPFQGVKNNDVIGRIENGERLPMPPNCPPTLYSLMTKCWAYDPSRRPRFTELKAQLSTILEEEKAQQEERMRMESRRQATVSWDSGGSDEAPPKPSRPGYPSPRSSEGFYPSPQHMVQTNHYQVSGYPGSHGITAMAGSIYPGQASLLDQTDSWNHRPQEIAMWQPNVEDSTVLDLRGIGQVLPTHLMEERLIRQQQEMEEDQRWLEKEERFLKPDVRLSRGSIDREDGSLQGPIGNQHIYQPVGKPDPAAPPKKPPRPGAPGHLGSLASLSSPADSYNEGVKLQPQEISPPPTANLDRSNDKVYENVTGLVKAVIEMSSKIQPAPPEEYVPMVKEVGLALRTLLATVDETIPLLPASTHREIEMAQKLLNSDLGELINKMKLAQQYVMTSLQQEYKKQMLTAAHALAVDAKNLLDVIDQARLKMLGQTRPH

| Compound | IC50 [1] [nM] | IC50 [2] [nM] | IC50 [3] [nM] | IC50 [4] [nM] |
| --- | --- | --- | --- | --- |
| CC(C(N)=O)c1ccccc1CCc1nc(Nc2cnn(C3CCNCC3)c2)ncc1C(F)(F)F (racemic) [Compound 56, 2-(2-(2-(2-((1-(piperidin-4-yl)-1H-pyrazol-4-yl)amino)-5-(trifluoromethyl)pyrimidin-4-yl)ethyl)phenyl)propanamide] | 517 | – | – | – |
| NC(=O)C1(c2ccccc2CCc2nc(Nc3ccc(C4CNC4)cc3)ncc2C(F)(F)F)CC1 [Compound 4, 1-(2-(2-(2-((4-(azetidin-3-yl)phenyl)amino)-5-(trifluoromethyl)pyrimidin-4-yl)ethyl)phenyl)cyclopropanecarboxamide] | > 2000 | 2040 | – | – |
| CC(C(N)=O)c1ccccc1CCc1nc(Nc2cnn(C)c2)ncc1C(F)(F)F (stereo not drawn) [Compound 55, 2-(2-(2-(2-((1-Methyl-1H-pyrazol-4-yl)amino)-5-(trifluoromethyl)pyrimidin-4-yl)ethyl)phenyl) propanamide] | 115 | – | 15 | – |
| CCC(C(N)=O)c1ccccc1CCc1nc(Nc2ccc(C3CCNCC3)cc2)ncc1C(F)(F)F (racemic) [Compound 1, 2-(2-(2-(2-((4-(Piperidin-4-yl)phenyl)amino)-5-(trifluoromethyl)pyrimidin-4-yl)ethyl)phenyl)butanamide] | 1180 | – | – | – |
| Cn1cc(Nc2ncc(Cl)c(CCc3ccccc3C(C)(C)C(N)=O)n2)cn1 [Compound 45, 2-(2-(2-(5-Chloro-2-((1-methyl-1H-pyrazol-4-yl)amino)pyrimidin-4-yl)ethyl)phenyl)-2-methylpropanamide] | – | 370 | 3 | 23 |
| NC(=O)C1(c2ccccc2CCc2nc(Nc3cnn(C4CNC4)c3)ncc2Cl)CC1 [Compound 14, 1-(2-(2-(2-((1-(Azetidin-3-yl)-1H-pyrazol-4-yl)amino)-5-chloropyrimidin-4-yl)ethyl)phenyl)cyclopropanecarboxamide] | – | 357 | 6 | 30 |
